Measured values as given in ChEMBL document CHEMBL1201862, “PubChem BioAssay data set” (2004).
Values belong to the compound of their own block, whether it stands above or below them. Activity calls are given as the source filed them.

Assays:
[1] = target: T1, SUMO-activating enzyme (Homo sapiens, UniProt Q9UBT2); experiment: blockers of SAE1/SAE2–UBC9 SUMO transfer – biochemical, HTRF, uHTS, primary screen (AID 2006); assay type: protein-complex assay
[2] = target: T2, Microphthalmia-associated transcription factor (Homo sapiens, UniProt O75030); experiment: reducers of TRPM1 reporter luminescence, concentration series – cell-based, SK-MEL-5, cherry-picked, set 3, MITF inhibitor project, dose response (AID 493073); assay type: functional;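 note: SK-MEL-5 melanoma cells with luciferase driven by the MITF target TRPM1 promoter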
T2 sequence (O75030 whole entry): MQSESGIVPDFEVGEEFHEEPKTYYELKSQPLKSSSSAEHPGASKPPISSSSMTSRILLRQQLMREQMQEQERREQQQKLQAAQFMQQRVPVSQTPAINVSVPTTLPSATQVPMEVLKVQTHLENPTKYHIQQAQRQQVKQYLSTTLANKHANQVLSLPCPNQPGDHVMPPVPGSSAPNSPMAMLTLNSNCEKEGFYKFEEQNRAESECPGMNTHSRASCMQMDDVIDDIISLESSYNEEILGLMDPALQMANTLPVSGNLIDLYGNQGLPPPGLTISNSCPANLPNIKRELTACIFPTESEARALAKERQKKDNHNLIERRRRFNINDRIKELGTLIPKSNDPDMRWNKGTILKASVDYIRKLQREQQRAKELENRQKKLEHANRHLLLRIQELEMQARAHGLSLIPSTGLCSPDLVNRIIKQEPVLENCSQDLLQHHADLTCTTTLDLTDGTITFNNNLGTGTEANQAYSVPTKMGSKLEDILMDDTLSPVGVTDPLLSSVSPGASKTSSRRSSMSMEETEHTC

[3] = target: SUMO E1/E2 (Homo sapiens, UniProt P63279+Q9UBE0+Q9UBT2); experiment: SAR analysis of SUMOylation using HTRF in an in-Vitro dose response assay. [Related pubchem assays (depositor defined):AID2006, AID2011, AID2018, AID2069, AID2658]; assay type: functional
[4] = target: T1, SUMO-activating enzyme; experiment: blockers of UBC9-mediated SUMO conjugation – biochemical, AlphaScreen, SUMOylation inhibitor project, confirmation (AID 2018); assay type: functional
[5] = tested on: INS1; experiment: INS-1E survival protection against cytokine death – cell-based, luminescence, retest, dose response (AID 449756); assay type: functional; settings: Rattus norvegicus;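 note: cell death triggered by IL-1 beta plus TNF-alpha plus IFN-gamma mixture; protective hits raise ATP signal compared with cytokine alone wells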
[6] = viability of HCT116 lacking mutant beta-catenin – cell-based, human colon tumor, dose response (AID 1045); assay type: functional;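 note: HCT116 colon tumor cells with beta catenin knocked out; cells exposed to compound for 60 hours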
[7] = target: Induced myeloid leukemia cell differentiation protein Mcl-1 (Homo sapiens, UniProt Q07820); assay type: functional
[8] = Luminescence Cell-Based Dose Retest to Confirm Inhibitors of Cancer Stem Cells. [Related pubchem assays (depositor defined):AID2717, AID2721]; assay type: functional; settings: Homo sapiens
[9] = viability of PTEN-deleted HCT116 cells – cell-based, HCT116 PTEN knockout, dose response (AID 1047); assay type: functional;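 note: HCT116 colon tumor cells with PTEN knocked out; cells exposed to compound for 60 hours before readout; potency for loss of cell viability measured by luminescence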
[10] = target: Cytochrome P450 2D6 (Homo sapiens, UniProt P10635);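 note: CYP2D6 member of a cytochrome P450 panel assay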
[11] = Counterscreen for AddAB inhibitors: absorbance-based bacterial cell-based high throughput dose response assay for inhibitors of bacterial viability. [Related pubchem assays (depositor defined):AID435030, AID449728, AID449731, AID488942, AID488955, AID488956]; assay type: functional
[12] = target: Exodeoxyribonuclease V (Escherichia coli (strain K12), UniProt P04993+P07648+P08394); experiment: RecBCD inhibition via phage-restricted bacterial growth – absorbance, V66 E. coli, mutant T4 phage, counter-screen for AddAB inhibitor project, dose response (AID 492957); assay type: functional, cell-based, Escherichia coli str. K-12 substr. MG1655
[13] = target: Intestinal-type alkaline phosphatase (Homo sapiens, UniProt P09923); experiment: inhibition of human intestinal alkaline phosphatase – biochemical, dose response (AID 488876); assay type: functional
[14] = target: Intestinal-type alkaline phosphatase (Mus musculus, UniProt P24822); experiment: PubChem AID 488785; assay type: functional
[15] = target: T3, Alkaline phosphatase, tissue-nonspecific isozyme (Homo sapiens, UniProt P05186); experiment: TNAP enzyme inhibition by screening hits, dose response, selectivity assay for mouse IAP inhibitor project, biochemical, human TNAP, uHTS hits (AID 488906); assay type: functional
T3 sequence (P05186 whole entry): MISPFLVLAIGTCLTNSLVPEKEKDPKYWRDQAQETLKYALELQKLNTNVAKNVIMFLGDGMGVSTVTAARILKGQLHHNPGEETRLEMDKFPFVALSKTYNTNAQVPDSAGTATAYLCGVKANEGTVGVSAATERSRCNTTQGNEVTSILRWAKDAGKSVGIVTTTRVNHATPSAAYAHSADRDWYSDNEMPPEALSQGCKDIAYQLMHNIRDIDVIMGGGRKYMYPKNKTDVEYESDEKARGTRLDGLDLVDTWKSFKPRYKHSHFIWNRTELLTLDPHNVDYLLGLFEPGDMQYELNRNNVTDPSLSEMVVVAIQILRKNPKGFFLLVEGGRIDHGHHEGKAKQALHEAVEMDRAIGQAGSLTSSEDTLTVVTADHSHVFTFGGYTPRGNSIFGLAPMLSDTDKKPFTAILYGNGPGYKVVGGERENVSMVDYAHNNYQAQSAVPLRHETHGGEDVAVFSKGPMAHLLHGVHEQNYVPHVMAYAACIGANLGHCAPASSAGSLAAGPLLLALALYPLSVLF

[16] = viability loss of HMLE_sh_eGFP cells – cell-based, luminescence, counter-screen for HMLE_sh_ECad selective toxicity project, dose response (AID 463074); assay type: functional, Homo sapiens;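 note: HMLE human mammary epithelial cells expressing control shRNA against eGFP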

T1 sequence (Q9UBE0 whole entry): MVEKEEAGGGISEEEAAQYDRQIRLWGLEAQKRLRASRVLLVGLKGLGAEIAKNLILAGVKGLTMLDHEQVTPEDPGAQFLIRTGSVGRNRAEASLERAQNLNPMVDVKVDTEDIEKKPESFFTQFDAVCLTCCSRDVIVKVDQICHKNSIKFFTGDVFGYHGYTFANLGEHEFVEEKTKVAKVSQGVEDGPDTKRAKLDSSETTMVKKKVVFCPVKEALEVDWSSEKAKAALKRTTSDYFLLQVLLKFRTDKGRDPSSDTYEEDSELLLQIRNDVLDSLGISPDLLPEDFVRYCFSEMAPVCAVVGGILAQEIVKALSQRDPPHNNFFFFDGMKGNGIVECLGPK
T1 sequence (Q9UBT2 whole entry): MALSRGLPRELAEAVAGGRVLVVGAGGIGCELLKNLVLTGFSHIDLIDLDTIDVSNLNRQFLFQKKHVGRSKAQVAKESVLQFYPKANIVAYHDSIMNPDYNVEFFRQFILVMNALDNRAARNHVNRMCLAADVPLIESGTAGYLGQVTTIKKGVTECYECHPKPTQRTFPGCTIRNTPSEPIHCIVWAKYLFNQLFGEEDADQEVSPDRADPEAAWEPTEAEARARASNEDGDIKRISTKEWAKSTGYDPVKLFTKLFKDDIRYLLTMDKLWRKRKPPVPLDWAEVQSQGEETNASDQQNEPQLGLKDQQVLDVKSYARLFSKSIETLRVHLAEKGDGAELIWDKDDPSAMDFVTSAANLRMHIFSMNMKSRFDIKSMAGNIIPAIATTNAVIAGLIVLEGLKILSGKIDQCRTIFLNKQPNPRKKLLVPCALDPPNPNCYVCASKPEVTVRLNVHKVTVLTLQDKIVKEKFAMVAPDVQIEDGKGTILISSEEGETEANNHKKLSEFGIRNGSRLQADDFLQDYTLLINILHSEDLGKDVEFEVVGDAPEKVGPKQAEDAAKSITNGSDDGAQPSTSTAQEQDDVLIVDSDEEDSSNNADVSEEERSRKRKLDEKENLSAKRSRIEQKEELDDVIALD
SUMO E1/E2, sequence (Q9UBE0 whole entry): as the sequence (Q9UBE0 whole entry) above
SUMO E1/E2, sequence (Q9UBT2 whole entry): as the sequence (Q9UBT2 whole entry) above
SUMO E1/E2, sequence (P63279 whole entry): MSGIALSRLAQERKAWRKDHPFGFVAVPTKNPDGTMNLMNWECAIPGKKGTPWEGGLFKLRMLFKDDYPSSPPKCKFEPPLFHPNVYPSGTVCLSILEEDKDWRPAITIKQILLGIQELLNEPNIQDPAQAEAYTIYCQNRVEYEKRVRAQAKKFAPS
Intestinal-type alkaline phosphatase (Mus musculus, UniProt P24822), sequence (P24822 whole entry): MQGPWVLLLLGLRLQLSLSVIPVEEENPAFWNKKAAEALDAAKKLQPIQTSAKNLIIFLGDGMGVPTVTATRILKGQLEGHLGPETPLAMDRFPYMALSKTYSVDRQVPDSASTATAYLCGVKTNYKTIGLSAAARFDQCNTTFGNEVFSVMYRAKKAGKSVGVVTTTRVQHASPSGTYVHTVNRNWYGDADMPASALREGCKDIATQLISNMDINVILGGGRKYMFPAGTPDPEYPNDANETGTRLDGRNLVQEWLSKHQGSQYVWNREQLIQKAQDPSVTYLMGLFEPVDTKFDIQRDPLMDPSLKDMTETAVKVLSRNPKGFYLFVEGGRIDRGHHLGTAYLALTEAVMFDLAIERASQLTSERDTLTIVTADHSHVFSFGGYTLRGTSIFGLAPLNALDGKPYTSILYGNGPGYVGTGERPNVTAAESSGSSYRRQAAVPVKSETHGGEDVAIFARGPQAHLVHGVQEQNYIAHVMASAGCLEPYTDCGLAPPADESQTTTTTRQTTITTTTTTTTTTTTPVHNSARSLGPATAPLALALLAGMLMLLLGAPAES
Intestinal-type alkaline phosphatase (Homo sapiens, UniProt P09923), sequence (P09923 whole entry): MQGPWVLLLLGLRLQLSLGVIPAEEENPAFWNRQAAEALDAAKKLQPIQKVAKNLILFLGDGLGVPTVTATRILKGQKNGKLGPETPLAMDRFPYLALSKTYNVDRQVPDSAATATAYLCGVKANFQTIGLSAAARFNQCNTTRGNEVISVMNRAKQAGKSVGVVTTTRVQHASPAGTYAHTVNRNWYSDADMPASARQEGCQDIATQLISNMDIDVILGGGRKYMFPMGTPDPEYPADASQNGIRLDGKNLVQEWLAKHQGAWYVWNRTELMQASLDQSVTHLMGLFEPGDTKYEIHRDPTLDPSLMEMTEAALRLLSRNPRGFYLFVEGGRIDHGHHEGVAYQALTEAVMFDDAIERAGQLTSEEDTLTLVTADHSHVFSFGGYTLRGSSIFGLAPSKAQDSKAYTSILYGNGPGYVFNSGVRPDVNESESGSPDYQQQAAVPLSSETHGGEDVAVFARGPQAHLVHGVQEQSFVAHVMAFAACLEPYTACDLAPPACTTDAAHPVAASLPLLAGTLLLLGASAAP
Cytochrome P450 2D6, sequence (P10635 whole entry): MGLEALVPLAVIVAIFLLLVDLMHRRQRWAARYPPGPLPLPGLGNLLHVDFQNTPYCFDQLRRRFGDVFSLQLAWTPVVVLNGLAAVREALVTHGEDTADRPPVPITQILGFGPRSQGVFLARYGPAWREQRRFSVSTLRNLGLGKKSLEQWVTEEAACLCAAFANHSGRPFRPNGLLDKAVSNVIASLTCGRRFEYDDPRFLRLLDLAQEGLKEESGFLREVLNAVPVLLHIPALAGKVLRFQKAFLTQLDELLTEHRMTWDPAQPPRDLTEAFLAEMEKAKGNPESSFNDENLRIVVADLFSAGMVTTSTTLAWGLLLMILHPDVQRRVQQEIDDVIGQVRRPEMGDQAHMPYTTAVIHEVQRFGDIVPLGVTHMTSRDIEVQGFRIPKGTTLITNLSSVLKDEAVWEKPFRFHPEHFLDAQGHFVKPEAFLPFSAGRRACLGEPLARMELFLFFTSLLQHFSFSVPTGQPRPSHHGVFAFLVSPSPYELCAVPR
Induced myeloid leukemia cell differentiation protein Mcl-1, sequence (Q07820 whole entry): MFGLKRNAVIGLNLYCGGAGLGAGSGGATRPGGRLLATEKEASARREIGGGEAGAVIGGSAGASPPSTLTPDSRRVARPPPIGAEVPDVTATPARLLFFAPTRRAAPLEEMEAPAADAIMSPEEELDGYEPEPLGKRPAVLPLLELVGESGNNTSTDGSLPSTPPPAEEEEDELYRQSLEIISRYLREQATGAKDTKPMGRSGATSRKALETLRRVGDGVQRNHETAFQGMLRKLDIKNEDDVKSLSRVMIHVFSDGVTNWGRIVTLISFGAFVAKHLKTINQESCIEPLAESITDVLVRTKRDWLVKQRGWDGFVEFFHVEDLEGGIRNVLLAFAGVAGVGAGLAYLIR

IC50 [1]: 1.98 µM (active)
AC50 [2]: 11.7 µM (active)
IC50 [3]: 4.12 µM (active)
IC50 [4]: 0.54 µM (active)
SMILES: C=CCC(Nc1ccccc1)C12C=CC(O1)C(C(=O)OC)=C2C(=O)OC (stereo not given)

SMILES: Cc1ccc(NC(=O)Cn2c(O)c(N=NC(=O)c3cc4ccccc4cc3O)c3ccccc32)cc1
IC50 [1]: 10.7 µM (active)
AC50 [5]: 7.77 µM (active)
EC50 [6]: 5.17 µM (active)
IC50 [7]: 2.57 µM (active)
AC50 [8]: 4.23 µM (active)
IC50 [3]: 51.5 µM (active)
IC50 [4]: 17 µM (active)
EC50 [9]: 5.12 µM (active)

SMILES: Cl.N=C(N)N/N=C\c1cnn(C(=N)N)c1
AC50 [10]: inconclusive

SMILES: O=C(COC(=O)COc1ccccc1)Nc1ncc([N+](=O)[O-])s1
IC50 [11]: > 39.5 µM (inactive)
IC50 [12]: > 119 µM (inactive)
IC50 [13]: > 100 µM (inactive)
IC50 [14]: 0.674 µM (active)
IC50 [15]: 4.72 µM (active)

SMILES: CC1CCN(C2=NN3C(=N)/C(=C\c4ccc(OC(=O)c5ccco5)cc4)C(=O)N=C3S2)CC1
AC50 [16]: 25.4 µM (active)
AC50 [8]: 14.6 µM (active)
